The target of test [1] is T1, His-tagged cysteine protease domain of C. difficile toxin B (Clostridioides difficile, UniProt P18177).
T1 construct: cysteine protease domain of C. difficile toxin B
Briefly: Determination of EC50 in presence of 10 mM Ca2+ (cleavage of TcdB cysteine protease domain, SDS-PAGE). The settings on record: for cleavage activity at 100 μM: 100 μM compound, 10 mM Ca2+, FIG. 1A; for activity (cleavage of TcdB CPD) in the presence of calcium, compared with IP6: in the presence of calcium (10 mM Ca2+). Type of test: biochemical, Clostridium difficile. How it is done: The compound to be tested was added to a recombinant His-tagged cysteine protease domain of C. difficile toxin B of SEQ ID 1 in presence of 10 mM Ca^2+ in 100 mM Tris pH7.4 and incubated for 2 h at 37° C. Cleaved protein fragments were separated by SDS-PAGE and visualized by Coomassie staining. The extent of cleavage quantified from protein band intensities using the ImageJ software package. Signals were normalized to cleavage of positive and negative controls.

Test [2] concerns the target T1, His-tagged cysteine protease domain of C. difficile toxin B. Description: Comparison of cleavage kinetics in presence of 10 mM Ca2+. The settings on record: 37° C., FIG. 1B. Type of test: biochemical, Clostridium difficile. The procedure:
The compound to be tested was added to the His-tagged cysteine protease domain of C. difficile toxin B (same sequence as given above) in presence of 10 mM Ca^2+ in 100 mM Tris pH 7.4 and incubated for 24 h at 37° C., with aliquots removed at regular intervals. Cleaved protein fragments were separated, visualized and analyzed as indicated above.

T1 sequence (P18177 544-799 limits assumed): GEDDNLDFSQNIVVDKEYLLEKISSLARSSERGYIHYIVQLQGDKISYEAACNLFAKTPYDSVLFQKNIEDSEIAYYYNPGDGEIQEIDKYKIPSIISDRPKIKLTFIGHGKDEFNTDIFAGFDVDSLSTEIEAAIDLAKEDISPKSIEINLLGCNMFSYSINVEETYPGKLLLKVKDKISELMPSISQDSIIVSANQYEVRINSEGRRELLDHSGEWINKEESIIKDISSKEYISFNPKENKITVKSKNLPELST

For orientation: EC50 means the concentration that produces a half-maximal response. As to `O=P(O)(O)O[C@H]1[C@H](OP(=O)(O)O)[C@@H](OP(=O)(O)O)[C@H](OP(=O)(O)O)[C@@H](OP(=O)(O)O)[C@H]1OP(=O)(O)O` [IP6, myo-inositol hexakisphosphate, reference compound], in test [1], the half-maximal effective concentration (EC50) was found to be 601 µM and the “cleavage activity at 100 μM” value is recorded as “disappears almost completely”.

As for “myo-inositol-pentakisphosphate-2-PEG(400) [(7)]”, in test [1], the “cleavage activity at 100 μM” value is “retains residual activity” and the “activity (cleavage of TcdB CPD) in the presence of calcium, compared with IP6” value is listed as “improved ability to cleave TcdB CPD”. Besides, in test [2], the “extent of cleavage after 4 h relative to IP6” value is listed as 5 fold.

In the case of `O=P(O)(O)O[C@H]1[C@H](OS(=O)(=O)O)[C@@H](OP(=O)(O)O)[C@H](OS(=O)(=O)O)[C@@H](OP(=O)(O)O)[C@H]1OS(=O)(=O)O` [PSPSPS], the EC50 in test [1] came out at 20 µM.

`O=S(=O)(O)OC1C(OS(=O)(=O)O)C(OS(=O)(=O)O)C(OS(=O)(=O)O)C(OS(=O)(=O)O)C1OS(=O)(=O)O` (stereo not shown) [IS6, inositolhexakissulfate]: the “activity (cleavage of TcdB CPD) in the presence of calcium, compared with IP6” value in test [1] is “much more active than IP6”.

These data come from patent US9358243B2, “Pharmaceutical compounds for use in the therapy of Clostridium difficile infection” (ETH Zurich, priority 2011, dated 2016).
